Data from US8815893B2, “Hetarylaminonaphthyridines” (Merck Patent GmbH, priority 2010, dated 2014).
pIC50: −log10 of the molar value.

Tests used:
[1] = molecular target: T1, GST-ALK5 (Homo sapiens, UniProt P36897); test: In-vitro (enzyme) kinase assay, 384-well flashplate (example 14); assay type: biochemical; conditions: GST-ALK5, GST-SMAD2 substrate, 33P-ATP flashplate, 30° C. 45 min; IC50 classes; read-out: TβR activity (example 14)
T1 sequence (P36897 34-503): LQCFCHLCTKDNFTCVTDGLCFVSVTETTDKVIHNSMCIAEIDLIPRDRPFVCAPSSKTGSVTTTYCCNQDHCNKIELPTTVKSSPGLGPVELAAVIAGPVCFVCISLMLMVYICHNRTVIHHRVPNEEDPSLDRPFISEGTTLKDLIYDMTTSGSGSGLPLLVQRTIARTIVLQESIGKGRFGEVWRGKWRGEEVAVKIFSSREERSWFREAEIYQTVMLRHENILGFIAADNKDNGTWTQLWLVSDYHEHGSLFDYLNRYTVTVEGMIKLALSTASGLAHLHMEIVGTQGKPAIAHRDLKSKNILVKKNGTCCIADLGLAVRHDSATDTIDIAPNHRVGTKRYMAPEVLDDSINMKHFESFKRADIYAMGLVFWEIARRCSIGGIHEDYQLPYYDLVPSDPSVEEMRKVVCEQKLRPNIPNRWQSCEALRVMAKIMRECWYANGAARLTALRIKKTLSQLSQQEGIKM
Protocol: In-Vitro (Enzyme) Assay for Determination of the Efficacy of Inhibitors of the Inhibition of TGF-Beta-Mediated Effects
The kinase assay was carried out as 384-well flashplate assay. 31.2 nM of GST-ALK5, 439 nM of GST-SMAD2 and 3 mM of ATP (with 0.3 μCi of ^33P-ATP/well) were incubated in a total volume of 35 μl (20 mM of HEPES, 10 mM of MgCl2, 5 mM of MnCl2, 1 mM of DTT, 0.1% of BSA, pH 7.4) without or with test substance (5-10 concentrations) at 30° C. for 45 min. The reaction was stopped using 25 μl of 200 mM EDTA solution, filtered with suction at room temperature after 30 min, and the wells were washed with 3 times 100 μl of 0.9% NaCl solution. Radioactivity was measured in the TopCount. The IC50 values were calculated using RS1. Above and below, all temperatures were indicated in ° C.

[2] = system: lung epithelial cell line Mv1Lu; test: Cellular assay for TGF-beta receptor I kinase inhibitors: elimination of TGF-beta-mediated growth inhibition (example 13); assay type: cell-based; conditions: 48 h; Mv1Lu cells, 1 ng/ml TGF-beta, 0.5% FCS, two days, Crystal Violet staining; read-out: TβR activity (example 13)
Protocol: Cellular Assay for Testing TGF-Beta Receptor I Kinase Inhibitors
As an example, the ability of the inhibitors to eliminate TGF-beta-mediated growth inhibition was tested. Cells of the lung epithelial cell line Mv1Lu were sown in a defined cell density in a 96-well microtiter plate and cultivated overnight under standard conditions. Next day, the medium was replaced by medium which comprises 0.5% of FCS and 1 ng/ml of TGF-beta, and the test substances were added in defined concentrations, generally in the form of dilution series with 5 fold steps. The concentration of the solvent DMSO was constant at 0.5%. After a further two days, Crystal Violet staining of the cells was carried out. After extraction of the Crystal Violet from the fixed cells, the absorption was measured spectrophotometrically at 550 nm. It could be used as a quantitative measure of the adherent cells present and thus of the cell proliferation during the culture.

Cc1cc(-c2cc(Nc3cc(NCCN4CCCC4)ncn3)c3cccnc3n2)c(C)o1 [compound 147]
pIC50 [1]: 5.00 to 6.00 | pIC50 [2]: < 5.00

Cc1cccc(-c2cc(Nc3cc(F)nc(N4CCOCC4)n3)c3cccnc3n2)n1 [compound 84]
pIC50 [1]: < 5.00 | pIC50 [2]: < 5.00

O=C(NCCN1CCCC1)c1cc(Nc2cc(-c3cc(F)ccc3F)nc3ncccc23)ccn1 [compound 122]
pIC50 [1]: 5.00 to 6.00 | pIC50 [2]: < 5.00

Cc1cccc(-c2cc(Nc3ccncc3Cl)c3cccnc3n2)n1 [compound 80]
pIC50 [1]: > 7.00 | pIC50 [2]: > 7.00

CN(C)CCNC(=O)c1cc(Nc2cc(-c3cc(F)ccc3F)nc3ncccc23)ccn1 [compound 119]
pIC50 [1]: 5.00 to 6.00 | pIC50 [2]: < 5.00

O=C(NCCN1CCCC1)c1cnccc1Nc1cc(-c2cc(Cl)ccc2F)nc2ncccc12 [compound 133]
pIC50 [1]: > 7.00 | pIC50 [2]: > 7.00

NCCC(=O)Nc1cc(Nc2cc(-c3cc(Cl)ccc3F)nc3ncccc23)ncn1 [compound 94]
pIC50 [1]: > 7.00 | pIC50 [2]: > 7.00

CCOc1ccc(Cl)cc1-c1cc(Nc2ccnc(NC(C)=O)c2)c2cccnc2n1 [compound 79]
pIC50 [1]: 6.00 to 7.00 | pIC50 [2]: 6.00 to 7.00

NCCCC(=O)Nc1cc(Nc2cc(-c3cc(Cl)ccc3F)nc3ncccc23)ncn1 [compound 135]
pIC50 [1]: > 7.00 | pIC50 [2]: 6.00 to 7.00

CC(C)(C)OC(=O)NC(C)(C)C(=O)Nc1cc(Nc2cc(-c3cc(Cl)ccc3F)nc3ncccc23)ncn1 [compound 134]
pIC50 [1]: < 5.00 | pIC50 [2]: < 5.00

CN1CCC(C(=O)Nc2cc(Nc3cc(-c4cc(F)ccc4F)nc4ncccc34)ncn2)CC1 [compound 117]
pIC50 [1]: > 7.00 | pIC50 [2]: > 7.00

Cc1cccc(-c2cc(Nc3ccnc(NC(N)=O)c3)c3cccnc3n2)n1 [compound 85]
pIC50 [1]: > 7.00 | pIC50 [2]: 6.00 to 7.00

CC(C)(C)CC(=O)Nc1cc(Nc2cc(-c3cc(F)ccc3F)nc3ncccc23)ncn1 [compound 105]
pIC50 [1]: > 7.00 | pIC50 [2]: 6.00 to 7.00

Cc1nn(-c2cc(-c3cc(F)ccc3F)nc3ncccc23)c2ccncc12 [compound 100]
pIC50 [1]: > 7.00 | pIC50 [2]: 6.00 to 7.00

CNc1nccc(Nc2cc(-c3cccc(C)n3)nc3ncccc23)n1 [compound 90]
pIC50 [1]: > 7.00 | pIC50 [2]: 6.00 to 7.00

CC(C)NC(=O)c1cnccc1Nc1cc(-c2cc(Cl)ccc2F)nc2ncccc12 [compound 99]
pIC50 [1]: > 7.00 | pIC50 [2]: > 7.00

CNC(=O)c1cc(Nc2cc(-c3cc(F)ccc3F)nc3ncccc23)ccn1 [compound 118]
pIC50 [1]: 6.00 to 7.00 | pIC50 [2]: 5.00 to 6.00

CCN1CCN(C(=O)c2cnccc2Nc2cc(-c3cc(Cl)ccc3F)nc3ncccc23)CC1 [compound 132]
pIC50 [1]: 5.00 to 6.00 | pIC50 [2]: 5.00 to 6.00

CN(C)CC(=O)Nc1cc(Nc2cc(-c3cc(Cl)ccc3F)nc3ncccc23)ncn1 [compound 112]
pIC50 [1]: > 7.00 | pIC50 [2]: > 7.00

CC(C)(C)CC(=O)Nc1cc(Nc2cc(-c3cc(Cl)ccc3F)nc3ncccc23)ncn1 [compound 104]
pIC50 [1]: > 7.00 | pIC50 [2]: > 7.00

NCC(=O)Nc1cc(Nc2cc(-c3cc(Cl)ccc3F)nc3ncccc23)ncn1 [compound 110]
pIC50 [1]: > 7.00 | pIC50 [2]: > 7.00

Fc1ccc(F)c(-c2cc(Nc3cc(Cl)ncn3)c3cccnc3n2)c1 [compound 103]
pIC50 [1]: 6.00 to 7.00 | pIC50 [2]: < 5.00

NC(=O)Nc1cc(Nc2cc(-c3cc(F)ccc3F)nc3ncccc23)ccn1 [compound 143]
pIC50 [1]: > 7.00 | pIC50 [2]: > 7.00

Fc1ccccc1-c1cc(-n2ccc3cncnc32)c2cccnc2n1 [compound 96]
pIC50 [1]: 6.00 to 7.00 | pIC50 [2]: 5.00 to 6.00

CN1CCC(NC(=O)c2cnccc2Nc2cc(-c3cc(F)ccc3F)nc3ncccc23)CC1 [compound 113]
pIC50 [1]: > 7.00 | pIC50 [2]: > 7.00

CCOC(=O)NCC(=O)Nc1cc(Nc2cc(-c3cc(Cl)ccc3F)nc3ncccc23)ncn1 [compound 130]
pIC50 [1]: > 7.00 | pIC50 [2]: > 7.00

Fc1ccc(Cl)cc1-c1cc(Nc2ccnc(-c3cccnc3)n2)c2cccnc2n1 [compound 97]
pIC50 [1]: 5.00 to 6.00 | pIC50 [2]: < 5.00

CC(=O)Nc1cc(Nc2cc(-c3cc(F)ccc3F)nc3ncccc23)ncn1 [compound 89]
pIC50 [1]: > 7.00 | pIC50 [2]: > 7.00

Nc1cc(Nc2cc(-c3ccccc3F)nc3ncccc23)ncn1 [compound 86]
pIC50 [1]: > 7.00 | pIC50 [2]: 6.00 to 7.00

CCCC(=O)Nc1cc(Nc2cc(-c3cc(Cl)ccc3F)nc3ncccc23)ccn1 [compound 91]
pIC50 [1]: > 7.00 | pIC50 [2]: > 7.00

CN(C)CCNC(=O)c1cnccc1Nc1cc(-c2cc(Cl)ccc2F)nc2ncccc12 [compound 72]
pIC50 [1]: > 7.00 | pIC50 [2]: > 7.00

Fc1ccc(F)c(-c2cc(Nc3ccnc(Cl)c3)c3cccnc3n2)c1 [compound 125]
pIC50 [1]: > 7.00 | pIC50 [2]: 5.00 to 6.00

O=[N+]([O-])c1cn(-c2cc(-c3cc(Cl)ccc3F)nc3ncccc23)c2ccncc12 [compound 139]
pIC50 [1]: > 7.00 | pIC50 [2]: 5.00 to 6.00

CC(C)C(=O)Nc1cc(Nc2cc(-c3cc(Cl)ccc3F)nc3ncccc23)ncn1 [compound 92]
pIC50 [1]: > 7.00 | pIC50 [2]: > 7.00

CC(C)Oc1cccc(-c2cc(Nc3cc(NCCN4CCCC4)ncn3)c3cccnc3n2)c1 [compound 148]
pIC50 [1]: < 5.00 | pIC50 [2]: 5.00 to 6.00

CC(=O)Nc1nccc(Nc2cc(-c3cc(Cl)ccc3F)nc3ncccc23)n1 [compound 98]
pIC50 [1]: > 7.00 | pIC50 [2]: > 7.00

Oc1nccc(Nc2cc(-c3cc(Cl)ccc3F)nc3ncccc23)n1 [compound 76]
pIC50 [1]: 6.00 to 7.00 | pIC50 [2]: 5.00 to 6.00

COC(=O)c1nccc2c1ccn2-c1cc(-c2cc(Cl)ccc2F)nc2ncccc12 [compound 108]
pIC50 [1]: 6.00 to 7.00 | pIC50 [2]: 5.00 to 6.00

CC(C)(C)CC(=O)Nc1cc(Nc2cc(-c3cc(Cl)ccc3F)nc3ncccc23)ccn1 [compound 87]
pIC50 [1]: > 7.00 | pIC50 [2]: > 7.00

CN(C)CCNc1cc(Nc2cc(-c3cc(Cl)ccc3F)nc3ncccc23)ncn1 [compound 120]
pIC50 [1]: 6.00 to 7.00 | pIC50 [2]: 6.00 to 7.00

Fc1ccc(Cl)cc1-c1cc(-n2cc(Br)c3cnccc32)c2cccnc2n1 [compound 144]
pIC50 [1]: > 7.00 | pIC50 [2]: > 7.00

O=C(CO)Nc1cc(Nc2cc(-c3cc(Cl)ccc3F)nc3ncccc23)ccn1 [compound 82]
pIC50 [1]: > 7.00 | pIC50 [2]: > 7.00

Nc1cc(Nc2cc(-c3cc(F)ccc3F)nc3ncccc23)ncn1 [compound 106]
pIC50 [1]: > 7.00 | pIC50 [2]: 6.00 to 7.00

CN(C)c1cc(Nc2cc(-c3cc(F)ccc3F)nc3ncccc23)ncn1 [compound 137]
pIC50 [1]: < 5.00 | pIC50 [2]: < 5.00

COCCNc1cc(Nc2cc(-c3cc(F)ccc3F)nc3ncccc23)ncn1 [compound 138]
pIC50 [1]: 6.00 to 7.00 | pIC50 [2]: 6.00 to 7.00

CC(C)(N)C(=O)Nc1cc(Nc2cc(-c3cc(Cl)ccc3F)nc3ncccc23)ncn1 [compound 136]
pIC50 [1]: 6.00 to 7.00 | pIC50 [2]: 6.00 to 7.00

CC(C)(C)CC(=O)Nc1cc(Nc2cc(-c3ccccc3F)nc3ncccc23)ncn1 [compound 114]
pIC50 [1]: > 7.00 | pIC50 [2]: 6.00 to 7.00

CN1CCC(C(=O)Nc2cc(Nc3cc(-c4cc(Cl)ccc4F)nc4ncccc34)ncn2)CC1 [compound 111]
pIC50 [1]: > 7.00 | pIC50 [2]: > 7.00

CC(C)(C)CCNc1cc(Nc2cc(-c3cc(Cl)ccc3F)nc3ncccc23)ncn1 [compound 126]
pIC50 [1]: 6.00 to 7.00 | pIC50 [2]: 6.00 to 7.00

CCOC(=O)c1cc(Nc2cc(-c3cc(F)ccc3F)nc3ncccc23)ccn1 [compound 128]
pIC50 [1]: < 5.00 | pIC50 [2]: < 5.00
